Details: in vivo
From the text: In the insufflation to inflate the intestinal tract, a carbon dioxide gas (CO2) was supplied by using a hand operated double balloon pump through the transanal route. […] No anticonvulsive agent was used.
The procedure of the imaging was such that: firstly, the posture of the examinee was set to the left lateral decubitus position; a tube for insufflation was inserted; and a gas was supplied to confirm that smooth insufflation was possible. Next, the posture of the examinee was set to the abdominal position; the insufflation was conducted until the examinee had claimed a strong feeling of fullness or the pressure inside the intestinal tract had reached 25 mmHg; scanography was performed to confirm that the large intestine had been sufficiently inflated; and thereafter the CT image was taken. After taking the image of the abdominal position, the posture of the examinee was set to the dorsal position, and scanography was again performed to take the CT image in the dorsal position. At this time, if the inflation of the large intestine had been insufficient, additional insufflation was conducted. After the completion of the CT image taking, colon endoscopy was conducted to see the circumstances of the residual feces and residual liquid in the large intestine by eye. The CT image was taken under the charge of a clinical X-ray technician.

Structure (SMILES): O=C=O [CO2, carbon dioxide gas]
- examinees who felt abdominal pains: 50.0%
